Laboratory results: US20160074517A1, “AQUEOUS FORMULATIONS OF SPARINGLY WATER-SOLUBLE ACTIVE INGREDIENTS COMPRISING AS SOLUBILIZER A MIXTURE OF POLOXAMERS DIFFERING IN HYDROPHOBICITY” (BASF SE, priority 2013, published 2016)

Assay: Solubilization of sparingly water-soluble active ingredient in aqueous poloxamer formulations, quantified by UV/Vis spectroscopy
Assay type: physicochemical
Procedure: General procedure for the preparation of the aqueous formulations: […]
The data in % by weight in the tables below refer to the total amount of the aqueous formulation.
Components A and B in the amounts stated below in each case and also 2% by weight of active ingredient were dissolved in water (at 20° C. and ambient pressure).
The sample was stirred at 20° C. for 24 h (magnetic stirrer 500 rpm) and then filtered through an injection filter (PVDF filter membrane, 0.45 μm pore size).
The active ingredient quantification takes place via UV/Vis spectroscopy. For this, the samples were diluted with an organic solvent in which the active ingredient dissolves to at least 10 000 ppm (1% by weight) (ethanol).
By contrast, the solubilizing effect of a 5% strength by weight aqueous solution of PE10400 as individual component was stipulated as standard with the value 1 and the solubilizing effect of the mixtures was determined against this standard.
The solubilizing effect of a 5% strength by weight aqueous solution of PE 10400 was again selected as standard 1.

- solubility in a 5% strength by weight aqueous solution of PE 4300 (component B) (5% by weight PE 4300 in water, 20° C., 24 h stirring, filtered 0.45 μm): 28 ppm
- solubility in a 5% strength by weight aqueous solution of PE 6200 (component B) (5% by weight PE 6200 in water, 20° C., 24 h stirring, filtered 0.45 μm): 31 ppm
- solubility in a 5% strength by weight aqueous solution of PE 10400 (component A) (5% by weight PE 10400 in water, 20° C., 24 h stirring, filtered 0.45 μm): 710 ppm
- solubility in pure water (pure water): 5 ppm
Structure (SMILES): Cn1cc(C(=O)Nc2ccccc2-c2cc(F)c(F)c(F)c2)c(C(F)F)n1 [fluxapyroxad]
